Experimental data as given in US20040053826A1, “Uses of polypeptides” (priority 2000, published 2004).
Bridge positions count the residues as written; N and C are the ends. Ends that are not written are not given here.

How the values were obtained:
[1] = tested on: Wistar male rats; test: Locomotion measurement: effects of diazepam on locomotion induced by intraventricular polypeptide (SEQ ID NO: 9) or PACAP38; type: in vivo, rat
Text: (§1) Each of Wistar male rats (8 weeks old) was anesthetized with pentobarbital and fixed on a stereotaxic apparatus. A guide cannula (AG-8, Eicom) was inserted into the lateral ventricle of each rat (AP: +8.1 mm, L: 1.8 mm, H: +7.1 mm). The rats were then allowed to recover for at least one week before the experiment. During the recovery period, handling was made every day to reduce stresses resulting from intraventricular administration.
(§2) The cannulated rats were transferred to a locomotion testing system (Supermex, Muromachi Kikai Co., Ltd.) and acclimatized overnight. The rats were transferred from the locomotion testing system and subcutaneously administered with diazepam (1 mg/kg). An hour later, the rats were intraventricularly administered with the polypeptide (SEQ ID NO: 9; 10 nmol) or PACAP38 (3 nmol) dissolved in phosphate buffered saline (PBS) at a flow rate of 2.5 μl/min for 4 minutes. Immediately after the administration, the rats were returned to the locomotion testing system and tested for their spontaneous locomotion (FIG. 4).

[2] = tested on: C57BL/6N mice; test: Hole board test; type: in vivo, mouse; conditions: 0.1, 0.3 or 3 nmol into the lateral ventricle, 30 minutes after administration, over 5 minutes
Description: A polyvinyl chloride box having 4 holes (diameter: 3.8 cm) at its bottom was used as a hole board. Locomotion on the hole board was measured with a Supermex sensor (Muromachi Kikai Co., Ltd.). To measure the number of head dippings, MRS-110RX infrared-scanning sensors (Muromachi Kikai Co., Ltd.) were provided immediately below the respective holes.
(§3) After C57BL/6N mice were acclimatized in the laboratory, PBS containing the polypeptide (SEQ ID NO: 9; 0.1 nmol, 0.3 nmol or 3 nmol) or PBS alone was administered in a volume of 5 μl into the lateral ventricle of each mouse using a double-needle (Matsumoto Seisakusho) under ether anesthesia. Thirty minutes after the administration, each mouse was placed in the center of the hole board and tested over 5 minutes for locomotion and the number of head dippings.

[3] = tested on: C57BL/6N mice; test: Elevated plus maze test; type: in vivo, mouse; conditions: for (Open arm entries)/(open arm entries + closed arm entries): 30 minutes after administration, tested over 5 minutes
Text: An acrylic maze having 4 arms (25 cm long, 8 cm wide) placed in the shape of a cross (elevated plus maze) was positioned in a sound-proof chamber under low illumination (0.5 lux). Two opposite arms of the elevated plus maze were enclosed by walls (closed arms) and the other two arms were wall-less (open arms). The maze was elevated 25 cm above the floor (FIG. 5).
as §3, with “9; 1” for “9; 0.1 nmol, 0.3”, “placed on” for “placed in”, “the elevated plus maze” for “the center of the hole board”, “for” for “for locomotion and”, “of entries into each arm and the time spent on open arms.” for “of head dippings.”

[4] = tested on: Wistar male rats; test: Locomotion measurement (spontaneous locomotion and number of rearings) after administration into the lateral ventricle; type: in vivo, rat
Text: as §1, with “Wistar” for “Each of Wistar”, “rats (9” for “rats (8”, “old) were” for “old) was”, “and” for “and fixed on”, “a” for “a stereotaxic apparatus. A”
On the day before the experiment, the rats were transferred to a locomotion testing system for acclimation purposes. Under unanesthetized and unrestrained conditions, a microinjection cannula was attached to the guide cannula through which each rat was administered with the polypeptide (SEQ ID NO: 9; 10 nmol) dissolved in phosphate buffered saline (PBS) or PBS alone at a rate of 5 μl/min for 2 minutes. Immediately after the administration, the rats were returned to the locomotion testing system (Supermex, Muromachi Kikai Co., Ltd.) and tested for their spontaneous locomotion and the number of rearings (FIG. 1).
Wistar male rats (9 weeks old) were anesthetized with pentobarbital and a guide cannula (AG-8, Eicom) was inserted into the lateral ventricle of each rat (AP: 8.1 mm, L: 1.8 mm, H: 7.1 mm). The rats were then allowed to recover for at least one week before the experiment. During the recovery period, handling was made every day to reduce stresses resulting from intraventricular administration.
On the day before the experiment, the rats were transferred to a locomotion testing system for acclimation purposes. Under unanesthetized and unrestrained conditions, a microinjection cannula was attached to the guide cannula through which each rat was administered with the polypeptide (SEQ ID NO: 9; 1 nmol) dissolved in PBS or PBS alone in a volume of 10 μl (5 μl/min for 2 minutes). Immediately after the administration, the rats were returned to the locomotion testing system (Supermex, Muromachi Kikai Co., Ltd.) and tested for their spontaneous locomotion and the number of rearings (FIG. 2).
as §1
as §2, with “and” for “and subcutaneously administered with diazepam (1 mg/kg). An hour later, the rats were”, “9; 1 nmol or” for “9;”, “10” for “10 nmol) or PACAP38 (3”, “(PBS) or PBS alone” for “(PBS)”, “5” for “2.5”, “and the number of rearings.” for “(FIG. 4).”

[5] = Example 1, 10 nmol into the lateral ventricle
[6] = Example 2, 1 nmol into the lateral ventricle
[7] = Example 3, 10 nmol intraventricularly

PACAP38: PACAP38 known to have the ability to increase locomotion (HSDGIFTDSYSRYRKQMAVKKYLAAVLGKRYKQRVKNK; ends and bridges not checked; UniProt P18509 132-169, looked up)
spontaneous locomotion ([1]; PACAP38 3 nmol intraventricularly): increase in locomotion

CN1C(=O)CN=C(c2ccccc2)c2cc(Cl)ccc21 [Diazepam, diazepam]
effect on the increase in locomotion induced by PACAP38 ([1]; diazepam 1 mg/kg subcutaneously 1 hour before PACAP38 3 nmol intraventricularly): dose not affect
effect on the increase in locomotion induced by the polypeptide (SEQ ID NO: 9) ([1]; diazepam 1 mg/kg subcutaneously 1 hour before polypeptide (SEQ ID NO: 9) 10 nmol intraventricularly): significantly inhibits

polypeptide (SEQ ID NO: 9): bovine SENR ligand peptide; the 6th and 11th cysteine residues form an intramolecular disulfide bond (GPSSECFWKYCV; disulfide 6-11)
locomotion on the hole board [2]: no change
number of head dippings [2]: significant decrease
(Open arm entries)/(open arm entries + closed arm entries) ([3]; 1 nmol into the lateral ventricle, n=20): 0.131 ± 0.009
probability to select open arms ([3]; 1 nmol or 3 nmol into the lateral ventricle): reduced
(Open arm entries)/(open arm entries + closed arm entries) ([3]; 3 nmol into the lateral ventricle, n=20, *p < 0.05, Dunnett): 0.065 ± 0.018*
locomotion after the initial decrease [4, 5]: increase in their locomotion
number of rearings [4, 5]: same effects as found in spontaneous locomotion
spontaneous locomotion immediately after the administration, as compared with the control rats [4, 5]: tended to decrease
inhibition against a transient increase in locomotion as observed in 10 nmol administration [4, 6]: did not show such an inhibition
locomotion from immediately after the administration [4, 6]: increase in their locomotion
locomotion and the number of rearings from immediately after the administration ([4]; Example 3, 1 nmol intraventricularly): increases
duration of the decreases in locomotion and number of rearings [4, 7]: about 10 minutes
duration of the increase in locomotion [4, 7]: about 1 hour
locomotion and the number of rearings immediately after the administration [4, 7]: decreases
locomotion following the transient decrease [4, 7]: increase in locomotion
number of rearings ([4]; Example 3, 10 nmol intraventricularly, less significant tendency to increase): 51.0±13.4 times/90 min
